Laboratory results taken from US7776558B2, “Human G protein-coupled receptor and modulators thereof for the treatment of cell death-related disorders” (Arena Pharmaceuticals, Inc., priority 2003, dated 2010).
“Also recorded” adds a separate entry of the source. Where no end group is shown, it is not given here.

Experiments:
neuronal cells = conditions: cited from earlier work
[1] = tested on: human cerebrovascular smooth muscle cells; conditions: cited from earlier work
FPR = target: T1, FPR (Homo sapiens, UniProt P21462); test: [35S]GTPγS binding assay, membranes of transiently transfected CHO cells; format: biochemical; set-up: Full-Length Cloning of Human GPCRs; expressed in transfected cells; host or cells: CHO-K1 cells, transient, pCMV; plasma membranes; conditions: FIG. 3 panel C; up to a dose of 10 μM
T1 sequence (P21462 1-350): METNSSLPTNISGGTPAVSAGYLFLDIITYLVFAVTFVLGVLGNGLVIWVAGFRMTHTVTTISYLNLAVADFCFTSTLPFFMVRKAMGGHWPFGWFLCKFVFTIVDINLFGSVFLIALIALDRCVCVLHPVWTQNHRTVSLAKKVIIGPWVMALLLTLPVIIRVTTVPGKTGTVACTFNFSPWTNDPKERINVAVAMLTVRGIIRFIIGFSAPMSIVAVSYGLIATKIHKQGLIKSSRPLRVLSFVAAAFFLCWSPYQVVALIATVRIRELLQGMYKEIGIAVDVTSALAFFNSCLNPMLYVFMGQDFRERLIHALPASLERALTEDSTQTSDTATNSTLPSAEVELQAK
Method: The plasmids used were HA/V5 doubled tagged endogenous FPRL2 in pCMV, HA/V5 double-tagged endogenous FPRL1 in pCMV, HAN5 double-tagged endogenous FPR in pCMV, and pCMV alone (See, Example 1). Transient transfections were carried out on CHO-K1 cells. To a 15 cm dish of confluent cells, 12 μg of plasmid DNA and 60 μl Lipofectamine (Invitrogen, Carlsbad, Calif.) were added to each plate. Twenty-four hours post-infection, plasma membranes were isolated as described below. Assays were then run as described below.
“Membrane Scrape Buffer” consists of 20 mM HEPES and 10 mM EDTA, pH 7.4; “Membrane Wash Buffer” consists of […] and 0.1 mM EDTA, pH 7.4; “Binding. Buffer” consists of 20 mM HEPES, 100 mM NaCl, and 10 mM MgCl2, pH 7.4.
All materials were kept on ice throughout the procedure. Firstly, the media was aspirated from a confluent monolayer of transfected cells, followed by rinse with 10 ml cold PBS, followed by aspiration. Thereafter, 10 ml of Membrane Scrape Buffer was added to scrape cells; this was followed by transfer of cellular extract into 50 ml centrifuge tubes (centrifuged at 20,000 rpm for 17 minutes at 4° C.). […]
First, 100 μl GDP Buffer was added to each well of a Wallac Scintistrip™ (Wallac). […] The plates were then read on a Wallac 1450 using setting “Prot. #37” (as per manufacturer instructions).

[2] = tested on: differentiated SH-SY5Y cells; test: Aβ-induced cell death of differentiated SH-SY5Y cells; format: cell-based, human; conditions: AB1-42 80 μg/ml; Humanin 1 μM; Compound 1 20 μM, 5 μM or 1 μM; Trypan Blue staining; FIG. 12
Method: SH-SY5Y is a human neuroblastoma cell line. Differentiation of SH-SY5Y into neuronal-like cells was carried out by treatment with retinoic acid (10 μM) for five days followed by treatment with BDNF (10 ng/ml) for two days. Aβ (AB1-42) was purchased from Biosource International (Camarillo, Calif.; catalog no. 03-111).
The assay was carried out in serum-free medium. AB1-42 was used at 80 μg/ml. […] Compound 1 was used at either 20 μM, 5 μM or 1 μM.
Cell survival was determined by Trypan Blue staining.

[3] = tested on: primary mouse cortical neurons; test: 22C11 (anti-APP antibody)-induced cell death of primary mouse cortical neurons; format: cell-based; conditions: added 1 h prior to mAb 22C11; overnight (~18 h); LDH assay; FIG. 11B
Source text: 22C11 is a monoclonal antibody (mAb) which binds to the extracellular domain of the human, rat or mouse β-amyloid precursor protein (APP) (Boehringer Mannheim; Indianapolis, Ind.).
The assay was set up essentially as described by Rohn et al. [Neurochem (2000) 74:2331-2342]. Briefly, the primary cultures of mouse cortical neurons were established from E17 embryos. The gestational pups were humanely decapitated, and the brain was harvested into Hanks Buffered Salt Solution (HBSS) buffer. The cortices were taken and processed with trypsin (0.05% in HBSS), after which the cells were mechanically dissociated using a 21 g needle. The cell suspension was then passed through a […] filter, and the recovered cells plated on poly-D-lysine-treated 12-well plates. After five days of culture, the cells were used for assay.
For the assay, four experimental groups were set up. […] In the “22C11” group, cells were cultured in the presence of mAb 22C11 alone. […] The assay was allowed to proceed overnight (˜18 h), after which cell viability was determined by LDH assay as described in Example 25.

| Molecule | Protection of neuronal cells from toxic insults (neuronal cells; Alzheimer's disease-relevant toxicity, three mutant FAD genes and Aβ) | Rescue of cortical neurons from prion-peptide-induced apoptosis (neuronal cells; Sponne et al. 2004) | Protective activity for neurons against serum deprivation (neuronal cells; Takahashi et al. 2002) | Rescue from Aβ-induced toxicity [1] | Activity at FPR, promoted [35S]GTPγS binding (FPR) | Protection from Aβ-induced cell death [2] | Protection from cell death induced by anti-APP mAb 22C11 [3] | Activity relative to Humanin (neuronal cells; Niikura et al. 2002) |
| --- | --- | --- | --- | --- | --- | --- | --- | --- |
| CC[C@H](C)[C@H](NC(=O)[C@H](CCC(=O)O)NC(=O)[C@H](CO)NC(=O)[C@@H](NC(=O)[C@H](CC(C)C)NC(=O)[C@H](CC(C)C)NC(=O)[C@H](CC(C)C)NC(=O)[C@H](CC(C)C)NC(=O)[C@H](CS)NC(=O)[C@H](CO)NC(=O)[C@H](Cc1ccccc1)NC(=O)CNC(=O)[C@H](CCCNC(=N)N)NC(=O)[C@@H]1CCCN1C(=O)[C@H](C)NC(=O)[C@@H](N)CCSC)[C@@H](C)O)C(=O)N[C@@H](CC(=O)O)C(=O)N[C@@H](CC(C)C)C(=O)N1CCC[C@H]1C(=O)N[C@H](C(=O)N[C@@H](CCCCN)C(=O)N[C@@H](CCCNC(=N)N)C(=O)N[C@@H](CCCNC(=N)N)C(=O)N[C@@H](C)C(=O)O)C(C)C [Humanin] | protect neuronal cells from Alzheimer's disease-relevant toxicity; also recorded: protect neuronal cells from a number of toxic insults | rescue cortical neurons from prion-peptide-induced apoptosis | protective activity for neurons against serum deprivation | rescues human cerebrovascular smooth muscle cells from Aβ-induced toxicity | Neither Humanin nor [Gly14]-Humanin evidence significant activity | protect differentiated SH-SY5Y cells from Aβ-induced cell death | protect primary mouse cortical neurons from cell death | – |
| CC(C)c1ccc2c(c1)CCC1C(C)(C(N)=O)CCCC21C (centres unmarked) [Compound 1, 7-Isopropyl-1,4a-dimethyl-1,2,3,4,4a,9,10,10a-octahydro-phenanthrene-1-carboxylic acid amide] | – | – | – | – | – | protect differentiated SH-SY5Y cells from Aβ-induced cell death | protect primary mouse cortical neurons from cell death | – |
| MAPRGFSCLLLLTGEIDLPVKRRA [[Gly14]-Humanin] | – | – | – | – | Neither Humanin nor [Gly14]-Humanin evidence significant activity | – | – | significantly more active than Humanin |
